Measured values from US20240200118A1, “COMPOSITIONS AND METHODS FOR OPTIMIZING TROPISM OF DELIVERY SYSTEMS FOR RNA” (Renagade Therapeutics Management Inc., priority 2021, published 2024).

Assay: In vivo biodistribution of co-delivered barcoded LNPs by Next Generation Sequencing of barcodes in tissues
Design: species or system BALB/c mice
Settings: liver, kidney, lung, heart and brain; tail vein, 0.01 mg/kg per barcoded payload; compared with formulations using Lipids 1 and 3
Description: LNP/barcode complexes were prepared as described in Example 5. LNP/Barcode complex formulations were made by mixing different LNP/Barcode complex formulations together in equal parts (unless otherwise noted), to form Study Groups 1 and 2. Study Group 1 was dosed with a complex formulation that included formulations F-1, F-2, F-3, F-4, F-5, F-6, F-7, F-8 and F-16 in equal parts. Study Group 2 was dosed with a complex formulation that included formulations F-9, F-10, F-11, F-12, F-13, F-14, F-15, F-16 and F-17 in equal parts, except for F-10 which was mixed at 1/10th the concentration. BALB/c mice were injected via tail vein with 0.01 mg/kg (per unique barcoded payload, except for oRNA2A in F-10, which was dosed at 0.001 mg/kg) for each of Study Groups 1 and 2 in a total volume of 5 mL/kg. Each Study Group was dosed in 6 mice, and an additional 3 mice were dosed with PBS control. At 6 hr post injection, 3 animals from Study Group 1 were humanely euthanized by CO2 inhalation and organs including liver, spleen, lung, heart, kidney, brain, and blood were collected and snap frozen using liquid nitrogen. […] BLI images were detected in the auto-exposure mode. The BLI signal was quantitated using Living Image 4.7 software (Perkin Elmer) following the manufacturer's instruction. After BLI analysis the weights of the collected organs was measured. […]

## CCCCCCCCCCCCCCCCCC[N+](C)(CCCCCCCCCCCCCCCCCC)CCNC(=N)N.[Cl-] [Lipid 2]
  delivery to organs (barcode ratios normalized to the input material): superior delivery in most organs tested
